23 molecules from PubChem BioAssay (NCI) can be followed below.

Test in all cases: NCI tumour cell line growth inhibition, 48 h
Assay [1] relates to HOP-62 NSCLC.
Assay [2] concerns T-47D breast.
Assay [3] relates to MOLT-4 leukemia.
The test system of assay [4] is RXF 393 renal.
Assay [5] has as its system COLO 205 colon.
For assay [6], the system named is SNB-19 CNS.
The test system of assay [7] is TK-10 renal.
Assay [8] relates to OVCAR-3 ovarian.
The test system of assay [9] is HT29 colon.
Assay [10] has as its system OVCAR-8 ovarian.
The subject of assay [11] is UACC-257 melanoma.
The subject of assay [12] is HCT-15 colon.

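How tested: cells in 96-well plates exposed to compound for 48 hours at five concentrations. TGI: concentration producing complete growth inhibition.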

Consider `COC(=O)/C=C\c1ccc2c(c1)CC1(C2)Cc2ccc(/C=C/C(=O)OC)cc2C1` (stereo unspecified), for which the TGI was 25.3 µM in assay [1]; greater than 31.6 µM in assay [2]; greater than 31.6 µM in [3]; greater than 31.6 µM in [4]; greater than 31.6 µM in assay [5]; greater than 100 µM in assay [6]. Also, the TGI in assay [7], in assay [8], in assay [9], in [10], in assay [11] and in [12] was greater than 31.6 µM throughout.
As for `Cc1ccc2c(c1)C(=O)/C(=C1/CCc3ccc(C)cc31)C2`, the TGI in [1], in [2], in [3], in [4], in assay [5] and in [6] was greater than 100 µM in each case. Further, the TGI in assay [7], in [8], in assay [9], in [10], in assay [11] and in [12] was greater than 100 µM throughout.
As to `O=C1O/C(=C\c2ccc(O)c(Br)c2)C(c2ccc(O)cc2)=C1Cl`, the TGI in [1] is greater than 100 µM; in assay [2] it was greater than 100 µM; in assay [3], greater than 100 µM; in assay [4] it was 84.4 µM; in [5], greater than 100 µM; in [6], greater than 100 µM. The TGI in assay [7] was greater than 100 µM; in assay [8], 59.7 µM; in [9], greater than 100 µM; in [10] it was greater than 100 µM; in [11], greater than 100 µM; in assay [12], greater than 100 µM.
On to `O=C1c2ccccc2C(=O)c2c(OCC3CO3)ccc(OCC3CO3)c21` (stereo unspecified), for which the TGI came to 7.09 µM in [1]; 24.1 µM in assay [2]; 0.95 µM in [3]; 8.31 µM in assay [4]; 9.34 µM in assay [5]; 27.2 µM in [6]. Also, the TGI in [7] is 53.1 µM; in [8], 10.7 µM; in [9], 15.1 µM; in [10], 5.94 µM; in assay [11] it was 19.4 µM; in [12], 4.5 µM.
`O=S(=O)(O)c1cc(S(=O)(=O)O)c2c(N=Nc3cccc4ccccc34)c(O)ccc2c1`: the TGI in [1], in assay [2], in assay [3], in [4], in [5] and in assay [6] was greater than 100 µM throughout. Moreover, the TGI in [7], in assay [8], in [9], in assay [10], in [11] and in assay [12] was greater than 100 µM each time.
As to `Cc1c(O)c(OC2OC(CO)C(O)C(O)C2O)cc2c1CC[C@@H]1C2(C)C(=O)C[C@]2(C)[C@@H]([C@@](C)(O)C(O)/C=C/C(C)(C)O)[C@H](O)C[C@@]12C` (stereo partly specified), the TGI in assay [1], in assay [2], in [3], in [4], in [5] and in assay [6] was greater than 100 µM throughout. In addition, the TGI in assay [7], in [8], in [9], in [10], in [11] and in [12] was greater than 100 µM throughout.
In the case of `C=CCNC1=C2C[C@@H](C)C[C@@H](OC)[C@H](OC(=O)CN(C)C)[C@H](C)/C=C(\C)[C@@H](OC(N)=O)[C@H](OC)/C=C\C=C(/C)C(=O)NC(=CC1=O)C2=O`, the TGI in [1] was 17.6 µM; in assay [2], greater than 42.2 µM; in [3] it was greater than 41.6 µM; in assay [4] it was greater than 41.3 µM; in assay [5] it was 1.64 µM; in assay [6] it was 20.8 µM. Further, the TGI in assay [7] was 16.3 µM; in [8], 13.8 µM; in assay [9] it was 12.7 µM; in [10] it was 63.1 µM; in [11], 17.2 µM; in [12] it was 20.4 µM.
Turning to `CCCSc1cc(Cl)c(C)cc1S(=O)(=O)n1cc[nH]c1=O`, the TGI in assay [1], in assay [2], in assay [3], in assay [4], in assay [5] and in assay [6] was greater than 100 µM each time. For the same molecule, the TGI in [7], in [8], in assay [9], in [10], in assay [11] and in [12] was greater than 100 µM throughout.
As to `CCCCCCCCCCCCCCCCOP(=O)(O)OP(=O)(O)OCC1OC(n2ccc(N)nc2=O)CC1O` (stereo unspecified), the TGI in assay [1], in [2], in assay [3], in assay [4], in [5] and in assay [6] was greater than 100 µM in each case. In addition, the TGI in assay [7], in assay [8], in assay [9], in [10], in assay [11] and in assay [12] was greater than 100 µM in each case.
Turning to `CC(=O)N1NC(c2ccccc2)=CC(=O)/C1=C/C(=O)c1ccccc1`, the TGI was greater than 100 µM in assay [1]; greater than 100 µM in assay [2]; greater than 100 µM in [3]; 83 µM in assay [4]; greater than 100 µM in assay [5]; greater than 100 µM in [6]. Further, the TGI in assay [7], in assay [8], in assay [9], in assay [10], in [11] and in [12] was greater than 100 µM throughout.
As for `O=c1c2cccnc2[nH]c2ccc3scnc3c12`, the TGI in assay [1] is greater than 10 µM; in assay [2], greater than 10 µM; in [3], greater than 10 µM; in assay [4] it was 8.71 µM; in assay [5] it was greater than 10 µM; in assay [6] it was greater than 10 µM. For the same molecule, the TGI in assay [7], in [8], in assay [9], in assay [10], in [11] and in assay [12] was greater than 10 µM throughout.
For the molecule `O=C(OCc1ccccc1)N1CCNCCNCC1`, the TGI in [1], in assay [2], in [3], in [4], in [5] and in assay [6] was greater than 100 µM in each case. Besides, the TGI in assay [7], in [8], in [9], in assay [10], in assay [11] and in [12] was greater than 100 µM throughout.
Consider `COC(=O)c1ccccc1C1CN=NC12Cc1c(C)cc(C)cc1C2=O` (stereo unspecified), for which the TGI in assay [1], in [2], in assay [3], in assay [4], in assay [5] and in [6] was greater than 100 µM each time. Besides, the TGI in assay [7], in [8], in assay [9], in assay [10], in assay [11] and in assay [12] was greater than 100 µM throughout.
As for `O=C1CCC(=O)N1CNc1ccc2c(c1)Sc1ccccc1O2`, the TGI in assay [1] was greater than 100 µM; in assay [2] it was greater than 100 µM; in assay [3], greater than 100 µM; in [4], 79.9 µM; in [5], 35.3 µM; in assay [6] it was greater than 100 µM. In addition, the TGI in [7] is greater than 100 µM; in assay [8], 75 µM; in assay [9], 54.7 µM; in [10] it was 68.5 µM; in [11], greater than 100 µM; in [12] it was greater than 100 µM.
For the molecule `CN(CCc1ccc(Br)cc1)CCN1CCCCC1`, the TGI in [1] was greater than 100 µM; in [2], greater than 100 µM; in assay [3], greater than 100 µM; in [4] it was greater than 100 µM; in [5], 32.4 µM; in assay [6], greater than 100 µM. The TGI in [7] was greater than 100 µM; in assay [8] it was greater than 100 µM; in [9], 38.8 µM; in assay [10], greater than 100 µM; in assay [11], greater than 100 µM; in assay [12], greater than 100 µM.
Turning to `C1COC2SC3=C(SC(=C4SC5=C(SCCS5)S4)S3)SC2O1` (stereo unspecified), the TGI in assay [1], in assay [2], in assay [3], in assay [4], in assay [5] and in assay [6] was greater than 100 µM in each case. Moreover, the TGI in assay [7], in assay [8], in [9], in [10], in [11] and in assay [12] was greater than 100 µM each time.
With `CN(C)c1ccc(N=Nc2cccc3ccoc23)cc1`, the TGI in assay [1], in [2], in assay [3], in assay [4], in assay [5] and in assay [6] was greater than 100 µM in each case. Further, the TGI in assay [7], in assay [8], in [9], in assay [10], in assay [11] and in assay [12] was greater than 100 µM each time.
In the case of `Cc1cc(C)c2c(=O)cc(-c3ccc(Cl)cc3)[nH]c2n1`, the TGI in [1] is greater than 100 µM; in [2], greater than 100 µM; in assay [3], greater than 100 µM; in assay [4] it was greater than 100 µM; in assay [5] it was greater than 55.6 µM; in assay [6], greater than 100 µM. The TGI in assay [7] was greater than 100 µM; in assay [8] it was greater than 100 µM; in [9], greater than 48.5 µM; in [10], greater than 100 µM; in assay [11], 83.1 µM; in assay [12], greater than 100 µM.
As for `COc1cc(CC2CCc3nc(N)nc(N)c3C2)cc(OC)c1OC` (stereo unspecified), the TGI is 69.7 µM in assay [1]; greater than 100 µM in [2]; greater than 100 µM in [3]; 11.9 µM in assay [4]; 21.6 µM in assay [5]; greater than 100 µM in assay [6]. For the same molecule, the TGI in assay [7] was greater than 100 µM; in assay [8], greater than 100 µM; in assay [9], greater than 100 µM; in assay [10] it was greater than 100 µM; in [11], greater than 63.1 µM; in assay [12], greater than 100 µM.
For the molecule `COC1Cc2c(C)c(OC(C)=O)c3cccnc3c2O1` (stereo unspecified), the TGI in [1] was 90.9 µM; in assay [2] it was 62.3 µM; in assay [3], 43.1 µM; in [4] it was 31.7 µM; in [5], greater than 100 µM; in [6] it was greater than 100 µM. Moreover, the TGI was greater than 100 µM in [7]; 70.5 µM in assay [8]; greater than 100 µM in [9]; 44.7 µM in [10]; 29.8 µM in [11]; 22.1 µM in assay [12].
Take `CC1=CC(C)C(C)N(CCNC(=O)Nc2ccccc2)c2ccccc21` (stereo unspecified): the TGI in assay [1] came out at 63.4 µM; in [2], 61.2 µM; in assay [3], 64.4 µM; in [4], 40.3 µM; in assay [5] it was 32.6 µM; in [6] it was 85.2 µM. The TGI in [7] was determined as 78.2 µM; in assay [8] it was 51.2 µM; in [9], 32.1 µM; in [10], 54.3 µM; in assay [11], 42.7 µM; in assay [12], 72 µM.
In the case of `COc1cccc2c1C(=O)C(=O)c1c-2oc(=O)c2cc(C)cc(OC)c12`, the TGI is 32.4 µM in assay [1]; greater than 75 µM in assay [2]; 74.3 µM in assay [3]; 42.8 µM in assay [4]; greater than 75 µM in assay [5]; greater than 75 µM in [6]. Besides, the TGI in [7] is greater than 75 µM; in assay [8] it was 27.2 µM; in [9], greater than 75 µM; in assay [10], 30.6 µM; in assay [11], 32.4 µM; in assay [12] it was 27.7 µM.
Consider `O=C(O)c1ccc(Nc2ccnc3cc(Cl)ccc23)cc1O`, for which the TGI in [1], in assay [2], in assay [3], in [4], in assay [5] and in [6] was greater than 100 µM in each case. Also, the TGI in [7], in [8], in assay [9], in assay [10], in assay [11] and in assay [12] was greater than 100 µM throughout.
